Laboratory results: patent publication US12370170B2, “Composition comprising naphthoquinone-based compound as active ingredient, for preventing or ameliorating fatigue, cachexia, pain, cognitive decline and hematopoietic stem cell reduction which are side effects related to anticancer drug treatment” (NADIANBIO LTD., priority 2016, dated 2025)

Key:
Type in all cases: in vivo, C57BL/6 mice
[1] = system: inflammatory cytokines TNF-α, IL-1β, IL-6 and IL-17; assay: Plasma inflammatory cytokines by ELISA in gemcitabine (500 mg/kg) animal model; settings: gemcitabine 500 mg/kg i.p. once; dunnione 20 mg/kg oral daily from 3 days before; 2 days after gemcitabine; vs gemcitabine group
Description: (§1) In this invention, 11 weeks old C57BL/6 mice were used. All the mice used in the experiments of the invention were raised in an aseptic animal room at the temperature of 22˜26 L with the humidity of 55˜60%. The mice were allowed to take general solid feed (SAMTACO Co., Ltd., Korea) and water freely. The mice were adapted for 1 week before the experiment. All the experiments were performed after obtaining approval from the clinical trial management committee in accordance with the laboratory animal care and ethics regulations of Wonkwang University. The mouse animal model of the present invention was treated with different anticancer drugs. Particularly, one kind of anticancer drug was administered intraperitoneally one time or more, or several kinds of anticancer drugs were administered once or more times or at different concentrations, leading to the establishment of the animal model of the invention. […]
Plasma was isolated from the gemcitabine animal model prepared by the same manner as described in Example 5, and the inflammatory cytokines TNF-α, IL-1β, IL-6 and IL-17 were analyzed by ELISA.

[2] = Muscle loss (body weight, gastrocnemius muscle weight) in 3×ACP animal model; settings: 3×ACP i.p. once; dunnione 20 mg/kg oral daily from 3 days before; 2 and 4 days after ACP
Description: as §1
To investigate the regulatory effect of dunnione on muscle loss in the 3×ACP animal models prepared by the same manner as described in Example 6, the changes of body weight and gastrocnemius muscle weight were measured after the drug treatment.

[3] = system: inflammatory cytokines TNF-α, IL-1β, IL-6 and IL-17; assay: Plasma inflammatory cytokines by ELISA in adriamycin animal model; settings: adriamycin 4 mg/kg/day i.p. ×3; compound 20 mg/kg oral daily from 3 days before; 4 days after final adriamycin; vs adriamycin group
Description: as §1, with “drugs.” for “drugs. Particularly, one kind of anticancer drug was administered intraperitoneally one time or more, or several kinds of anticancer drugs were administered once or more times or at different concentrations, leading to the establishment of the animal model of the invention.”
Particularly, plasma was isolated from the adriamycin animal model prepared by the same manner as described in Example 4, and the inflammatory cytokines TNF-α (R&D Systems, MTA00B), IL-1β (R&D Systems, MLB00C), IL-6 (R&D Systems, M6000B) and IL-17 (R&D Systems, M1700) were analyzed by ELISA (enzyme-linked immunosorbent assay).
To investigate the regulatory effect of β-lapachone on adriamycin induced inflammatory cytokines, plasma was isolated from the adriamycin animal model prepared by the same manner as described in Example 4, and the inflammatory cytokines TNF-α, IL-1β, IL-6 and IL-17 were analyzed by ELISA.

TNF-α = TNF-α expression in femur by immunohistostaining, 4×ACP animal model; settings: dunnione 80 mg/kg oral
Description: as §1, with “invention. In the adriamycin-induced animal model, the mice were divided into 6 groups as follows: the control group administered with PBS (Control, 5 mice), the group administered intraperitoneally with adriamycin (4 mg/kg/day) 3 times (ADR, 5 mice), the group administered orally with dunnione or β-lapachone from 3 days before the adriamycin treatment daily (20 mg/kg, 5 mice), and the group administered with dunnione or β-lapachone (20 mg/kg, 5 mice).” for “invention.”

orexin = assay: Orexin protein in hypothalamus by ELISA, 4×ACP animal model; settings: dunnione 80 mg/kg oral daily from 3 days before, 2 days after ACP
Description: as §1
To analyze orexin protein in the 4×ACP animal model prepared by the same manner as described in Example 8, the hypothalamus of the mouse was extracted, followed by the preparation of a homogenate. Orexin (MyBioSource, MBS2505504) was analyzed by ELISA to investigate the regulatory effect of β-lapachone on orexin.

[4] = system: MAFbx, MuRF1 and Bnip3 mRNAs; assay: Muscle loss related gene expression in cyclophosphamide induced animal model; settings: cyclophosphamide 350 mg/kg total; dunnione 20 mg/kg oral; vs cyclophosphamide group

CC1OC2=C(C(=O)C(=O)c3ccccc32)C1(C)C (stereo not shown) [dunnione, 2,3-dihydro-2,3,3-trimethyl naphtho [1,2-b]furan-4,5-dione]
level of inflammatory cytokines (TNF-α, IL-1β, IL-6, IL-17) in plasma [1]: significantly reduced | reduction of gastrocnemius muscle weight and gastrocnemius muscle weight change [2]: significantly restored | weight loss (body weight) [2]: significantly restored | level of inflammatory cytokines (TNF-α, IL-1β, IL-6, IL-17) in plasma [3]: significantly reduced | up-regulation of TNF-α in the bone (femur) (TNF-α): significantly suppressed | orexin reduction in the hypothalamus (orexin): recovered significantly almost to the same level of the control group | expressions of MAFbx, MuRF1 and Bnip3 mRNAs in muscle [4]: significantly reduced
